Test system: MDA-MB-231 xenograft
Assay: RPPA of protein expression, MDA-MB-231 xenograft endpoint analysis
Assay type: in vivo, nude mice
Conditions: 4 mg/kg/day vs. PBS
Description: Frozen xenograft tissue samples were embedded in OCT, and 8 μm sections were obtained using a cryostat. […] The resulting whole tissue lysates were boiled for 8 min at 100° C. and then printed onto a nitrocellulose slide (Avid, Grace Biolabs) along with a BSA protein concentration curve to estimate total protein concentration in each lysate. Total protein levels were assessed in each sample by staining with Sypro Ruby Protein Blot Stain (Invitrogen) according to manufacturer's instructions.
The total protein concentration in each sample was estimated by printing onto a nitrocellulose slide along with a BSA standard concentration curve, and total protein levels were assessed by staining with Sypro Ruby Protein Blot Stain (Invitrogen) according to manufacturer's instructions. Tissue lysates were diluted to 250 μg/ml in extraction buffer and stored at −80° C. prior to printing of arrays. RPPA printing and analysis of xenograft samples was conducted as previously described (Wulfkuhle et al., Clin Cancer Res. 2012; 18:6426-35). Antibody staining intensities were quantified using the MicroVigene v5 Software Package (Vigenetech). Signaling pathway activation was evaluated by staining the arrays with 156 antibodies against signaling endpoints, mainly phosphorylated and cleaved protein products. Before use for RPPA analysis, antibody specificity was confirmed by Western blot and analysis as previously described (Wulfkuhle et al., Clin Cancer Res. 2012; 18:6426-35).

[1] = *separate RPPA analysis, separate β actin probe

CCCCCCNC(=N)NC(=N)NCc1ccccc1 [HBB, N1-hexyl-N5-benzyl-biguanide]
fold change: 4EBP1 S65: 1.143 | fold change: 4EBP1 T37/46: 0.828 | fold change: 4EBP1 T70: 1.117 | fold change: A-Raf S299: 1.335 | fold change: AKT S473: 1.795 | fold change: AKT T308: 1.987 | fold change: ALK: 1.368 | fold change: ALK Y1604: 1.302 | fold change: AMPKalpha S485: 2.359 | fold change: AMPKbeta S108: 1.081 | fold change: ATF2 T69/71: 0.959 | fold change: ATM S1981: 1.438 | fold change: ATP CItrate Lyase S454: 1.229 | fold change: ATR S428: 1.345 | fold change: AXL: 1.199 | fold change: Acetyl-CoA Carboxylase S79: 1.295 | fold change: Actin beta: 1.000 | fold change: Aurora A T288/B T232/C T198: 1.651 | fold change: B-RAF: 1.341 | fold change: B-Raf S445: 1.392 | fold change: BAD: 1.198 | fold change: BAD S112: 1.355 | fold change: BAD S136: 1.550 | fold change: BCL-2: 1.315 | fold change: BIM: 1.211 | fold change: Bak: 1.254 | fold change: Bax: 1.132 | fold change: Bcl_xL: 1.275 | fold change: Beclin 1: 1.235 | fold change: CREB S133: 1.164 | fold change: Cl Caspase 3 D175: 1.484 | fold change: Cl Caspase 9 D315: 1.437 | fold change: Cl Caspase 9 D330: 1.492 | fold change: Cleaved PARP D214: 1.223 | fold change: Cofilin S3: 1.783 | fold change: CrkL Y207: 1.186 | fold change: Cyclin A: 1.513 | fold change: Cyclin B1 V152: 1.294 | fold change: Cyclin D1 (G124-326): 1.272 | fold change: Cyclin D1 T286: 1.693 | fold change: E-Cadherin: 1.903 | fold change: EGFR: 1.184 | fold change: EGFR Y992: 1.970 | fold change: EGFR Y1068: 1.557 | fold change: EGFR Y1148: 1.407 | fold change: EGFR Y1173: 1.388 | fold change: ER TOTAL: 1.304 | fold change: ER alpha S118: 1.293 | fold change: ERK 1-2 T202/Y204: 1.337 | fold change: ERK TOTAL: 1.242 | fold change: Elk S383: 1.926 | fold change: Ephrin A3 Y799/A4 Y799/A5 Y833: 1.553 | fold change: ErbB2/HER2 Y877: 1.283 | fold change: ErbB2/HER2 Y1248: 1.717 | fold change: ErbB3/HER3: 0.828 | fold change: ErbB3/HER3 Y1197: 1.363 | fold change: ErbB3/HER3 Y1289: 1.558 | fold change: FAK Y576/577: 1.291 | fold change: FKHR T24/FKHRL1 T32: 1.039 | fold change: FKHRL1 S253: 1.671 | fold change: FOXO1 S256: 1.338 | fold change: GRB2: 1.013 | fold change: GSK-3alpha/beta S21/9: 1.294 | fold change: HIF-1 alpha: 1.096 | fold change: HSP27 S82: 0.821 | fold change: HSP70: 1.429 | fold change: HSP90a T5/7: 1.555 | fold change: Heregulin: 0.654 | fold change: Histone H3 S28: 1.222 | fold change: IGF1R Y1135/36-IR Y1150/51: 1.118 | fold change: IGF-1R Y1131/IR Y1146: 1.596 | fold change: IGFBP7: 1.180 | fold change: IL6: 1.192 | fold change: IRS1: 0.996 | fold change: IkappaB-alpha S32/36: 1.317 | fold change: Insulin Receptor Beta: 1.219 | fold change: Jak2 Y1007: 1.647 | fold change: KI67: 1.120 | fold change: LC3B: 1.109 | fold change: LIMK1 T508/LIMK2 T505: 1.351 | fold change: LKB1 S428: 1.652 | fold change: MARCKS S152/156: 1.421 | fold change: MCSFR Y723: 1.215 | fold change: MDM2 S166: 1.189 | fold change: MEK 1/2 S217/221: 1.772 | fold change: Met Y1234/1235: 1.556 | fold change: Musashi: 1.320 | fold change: NF-kappaB p65 S536: 1.655 | fold change: PAK1 S199/204-PAK2 S192/197: 1.852 | fold change: PAK1 T423/PAK2 T402: 1.245 | fold change: PDGFR alpha Y754: 1.266 | fold change: PDGFR beta: 1.147 | fold change: PDGFR beta Y716: 0.981 | fold change: PDK1 S241: 1.118 | fold change: PDL1: 0.548 | fold change: PKC delta/theta S643/S676: 1.447 | fold change: PKC zeta/lambda T410/403: 0.971 | fold change: PLK1 T210: 1.301 | fold change: PTEN: 1.334 | fold change: PTEN S380: 1.440 | fold change: RAS TOTAL: 1.486 | fold change: Ras_GRF1: 1.237 | fold change: Rb S780: 1.516 | fold change: Ret Y905: 1.885 | fold change: Ros Y2274: 1.481 | fold change: S6 Ribosomal Protein S240/244: 0.457 | fold change: SAPK/JNK T183/Y185: 1.410 | fold change: SGK1 S78: 1.510 | fold change: SMAD2 S245/250/255: 1.425 | fold change: STAT3 S727: 1.302 | fold change: Shc Y317: 1.307 | fold change: Src Y527: 1.356 | fold change: Src family Y416: 0.804 | fold change: Stat 1 Y701: 1.092 | fold change: Stat3 Y705: 1.421 | fold change: Stat 5 Y694: 0.929 | fold change: TGF-beta: 1.188 | fold change: TNF alpha: 1.119 | fold change: Tuberin/TSC2 Y1571: 1.417 | fold change: VEGFR2 Y996: 1.205 | fold change: Vimentin: 1.021 | fold change: XIAP: 1.311 | fold change: c-Abl T735: 1.596 | fold change: c-Abl Y245: 1.215 | fold change: c-ErbB2/HER2: 1.184 | fold change: c-Kit Y703: 1.408 | fold change: c-Met TOTAL: 1.220 | fold change: c-Myc: 1.078 | fold change: c-Raf S338: 1.229 | fold change: eIF4G S1108: 1.471 | fold change: mTOR: 0.679 | fold change: mTOR S2448: 1.515 | fold change: p27 Kip1: 1.253 | fold change: p27 T187: 1.152 | fold change: p38 MAP Kinase T180/Y182: 1.075 | fold change: p53: 1.390 | fold change: p53 S15: 1.586 | fold change: p70S6 Kinase: 1.193 | fold change: p70 S6 Kinase S371: 1.621 | fold change: p70 S6 Kinase T389: 2.148 | fold change: p70 S6 Kinase T412: 1.352 | fold change: p90RSK T359/S363: 1.248 | fold change: pYAP S127: 1.022 | fold change: AMPK T172* [1]: 3.561 | fold change: AMPK total* [1]: 0.555 | fold change: PKM2 Y105* [1]: 1.403 | fold change: PKM2 total* [1]: 1.339

Source: US20180177749A1, “USE OF CYP EXPRESSION TO DIRECT THERAPEUTIC INTERVENTION IN CANCER” (REGENTS OF THE UNIVERSITY OF MINNESOTA, priority 2016, published 2018)
